Marks after values point to notes of the source that are not given here.
How the values were obtained:
HepaRG cells [1] = assay: Urea production of HepaRG monolayer cultures; assay type: cell-based, human
Protocol: For testing, the cells are seeded in 6-well and 24-well culture plates (Corning) in HepaRG media with different FBS batches or other differences in medium composition. After a 2 weeks proliferation phase, 2% of DMSO will be added to half of the cultures. After another 2 weeks of culturing, the confluence and morphology of the cultures will be assessed microscopically. Furthermore the +DMSO and −DMSO cell cultures in the 24-well plates will be tested for biochemical activity, i.e. urea production, ammonia elimination and protein content. […] Medium samples are taken after 1 hr from the culture wells, as a reference, and after 24 hours. At the end of the test period the cells are washed three times using PBS and stored at −20° C. for protein determination. From the changes in concentration at t=1 hr and 24 hr of urea and ammonia an activity per hour and per mg protein/well is calculated.
Urea: Urea concentrations of test medium samples are determined using the blood urea nitrogen test of Sigma Chemical Co according to the instructions of the manufacturer.
The HepaRG cells are cultured as indicated above in 24 well in presence or absence of 1 mM CG during the last 5 days. Next the cells are tested as indicated above in presence or absence of CG during 24 hours. To determine the conversion of ammonia into urea, the ^15N urea enrichment (single and double labeled) is measured in the test samples using mass-spectrometry. Similarly, HepG2 and cBAL111 cells were tested for their response to CG.

HepaRG cells [2] = assay: RT-PCR mRNA levels of hepatic genes in HepaRG cells from AMC-BAL bioreactor; assay type: cell-based, human
[3] = Bioreactor −DMSO +CG versus Monolayer + DMSO − CG
[4] = Bioreactor −DMSO +CG versus Monolayer − DMSO − CG
[5] = HepaRG in AMC-BAL bioreactor, 13 days, −DMSO, 1 mM CG

% improvement by bioreactor: CYP2B6 mRNA level (HepaRG cells [2]; [3]): 49% | % improvement by bioreactor: CYP3A4 mRNA level (HepaRG cells [2]; [3]): 148% | % improvement by bioreactor: PXR mRNA level (HepaRG cells [2]; [3]): 633% | % improvement by bioreactor: CYP2B6 mRNA level (HepaRG cells [2]; [4]): 863* % | % improvement by bioreactor: CYP3A4 mRNA level (HepaRG cells [2]; [4]): 1063* % | % improvement by bioreactor: PXR mRNA level (HepaRG cells [2]; [4]): 437% | CYP2B6 mRNA level (HepaRG cells [2]; [5]): 30.2 ± 15.9 % of in vivo | CYP3A4 mRNA level (HepaRG cells [2]; [5]): 102 ± 49.4 % of in vivo | PXR mRNA level (HepaRG cells [2]; [5]): 82.5 ± 68.9 % of in vivo
Structure (SMILES): NC(=O)N[C@@H](CCC(=O)O)C(=O)O [CG, carbamoyl glutamate]
instantaneous effect of CG on urea production (HepaRG cells [1]): negligible | Urea production (HepaRG cells [1]; HepaRG + DMSO, 1 mM CG in preincubation and in testmedium (++)): 13.7 ± 4.4 nmol/h/mg protein | Urea production (HepaRG cells [1]; HepaRG + DMSO, 1 mM CG only during preincubation (+−)): 11.0 ± 5.3 nmol/h/mg protein | Urea production (HepaRG cells [1]; HepaRG + DMSO, 1 mM CG only during test (−+)): 4.9 ± 4.2 nmol/h/mg protein | Urea production (HepaRG cells [1]; HepaRG − DMSO, 1 mM CG in preincubation and in testmedium (++)): 9.5 ± 4.2 nmol/h/mg protein | Urea production (HepaRG cells [1]; HepaRG − DMSO, 1 mM CG only during preincubation (+−)): 9.6 ± 3.3 nmol/h/mg protein | Urea production (HepaRG cells [1]; HepaRG − DMSO, 1 mM CG only during test (−+)): 5.9 ± 2.4 nmol/h/mg protein | increase of urea production by CG treatment (HepaRG cells [1]; all cell lines (HepG2, cBAL111, HepaRG), 1 mM CG): more than two-fold | time increased urea production is maintained upon withdrawal of the CG (HepaRG cells [1]; cells exposed to carbamoyl glutamate for at least 5 days): at least 24 hrs | % improvement by bioreactor: Alb mRNA level (HepaRG cells [2]; [3]): 313* % | % improvement by bioreactor: ArgI mRNA level (HepaRG cells [2]; [3]): 460* % | % improvement by bioreactor: ArgII mRNA level (HepaRG cells [2]; [3]): 42% | % improvement by bioreactor: CPS mRNA level (HepaRG cells [2]; [3]): 4000* % | % improvement by bioreactor: GS mRNA level (HepaRG cells [2]; [3]): 714% | % improvement by bioreactor: HNF4 mRNA level (HepaRG cells [2]; [3]): 198* % | % improvement by bioreactor: Alb mRNA level (HepaRG cells [2]; [4]): 109% | % improvement by bioreactor: ArgI mRNA level (HepaRG cells [2]; [4]): 155% | % improvement by bioreactor: ArgII mRNA level (HepaRG cells [2]; [4]): 54% | % improvement by bioreactor: CPS mRNA level (HepaRG cells [2]; [4]): 145% | % improvement by bioreactor: GS mRNA level (HepaRG cells [2]; [4]): 300* % | % improvement by bioreactor: HNF4 mRNA level (HepaRG cells [2]; [4]): 187* % | Alb mRNA level (HepaRG cells [2]; [5]): 72.1 ± 26.0 % of in vivo | ArgI mRNA level (HepaRG cells [2]; [5]): 22.9 ± 10.4 % of in vivo | ArgII mRNA level (HepaRG cells [2]; [5]): 305 ± 143 % of in vivo | CPS mRNA level (HepaRG cells [2]; [5]): 44.1 ± 32.2 % of in vivo | GS mRNA level (HepaRG cells [2]; [5]): 643 ± 395 % of in vivo | HNF4 mRNA level (HepaRG cells [2]; [5]): 386 ± 216 % of in vivo
